# Tests used:
# Type in all cases: in vivo
# Design in all cases: key: 5=total damage to plant; 0=no damage to plant
# [1] = system: ABUTH = Abutilon theophrasti; experiment: Pre-emergence herbicidal activity, glasshouse pot test
# Procedure: (§1) Seeds of a variety of test species were sown in standard soil in pots. After cultivation for one day (pre-emergence) under controlled conditions in a glasshouse (at 24/16° C., day/night; 14 hours light; 65% humidity), the plants were sprayed with an aqueous spray solution derived from the formulation of the technical active ingredient in acetone/water (50:50) solution containing 0.5% Tween 20 (polyoxyethelyene sorbitan monolaurate, CAS RN 9005-64-5). The test plants were then grown in a glasshouse under controlled conditions (at 24/16° C., day/night; 14 hours light; 65% humidity) and watered twice daily. After 13 days, the test was evaluated (5=total damage to plant; 0=no damage to plant). Pre- and post-emergence testing was carried out as detailed above on the compounds A1, A2, A4 and A5 and their respective S-enantiomers.
# [2] = system: AMARE = Amaranthus retroflexus; experiment: as above
# Procedure: as §1
# [3] = system: ECHCG = Echinochloa crus-galli; experiment: as above
# Procedure: as §1
# LOLPE [4] = experiment: as above
# Procedure: as §1
# SETFA = Setaria faberi [5] = experiment: as above; conditions: for SEFTA damage score (0-5): comparison of enantiomers; for SETFA damage score (0-5): 1000 g/Ha, evaluated after 13 days
# Procedure: as §1
# ZEAMX = Zea mays [6] = experiment: as above
# Procedure: as §1
# [7] = system: ABUTH = Abutilon theophrasti; experiment: Post-emergence herbicidal activity, glasshouse pot test
# Procedure: (§2) Seeds of a variety of test species were sown in standard soil in pots. After 8 days cultivation (post-emergence) under controlled conditions in a glasshouse (at 24/16° C., day/night; 14 hours light; 65% humidity), the plants were sprayed with an aqueous spray solution derived from the formulation of the technical active ingredient in acetone/water (50:50) solution containing 0.5% Tween 20 (polyoxyethelyene sorbitan monolaurate, CAS RN 9005-64-5). The test plants were then grown in a glasshouse under controlled conditions (at 24/16° C., day/night; 14 hours light; 65% humidity) and watered twice daily. After 13 days, the test was evaluated (5=total damage to plant; 0=no damage to plant). Pre- and post-emergence testing was carried out as detailed above on the compounds A1, A2, A4 and A5 and their respective S-enantiomers.
# [8] = system: AMARE = Amaranthus retroflexus; experiment: as above
# Procedure: as §2
# [9] = system: ECHCG = Echinochloa crus-galli; experiment: as above
# Procedure: as §2
# LOLPE [10] = experiment: as above
# Procedure: as §2
# SETFA = Setaria faberi [11] = experiment: as above; conditions: for SEFTA damage score (0-5): comparison of enantiomers; for SETFA damage score (0-5): 1000 g/Ha, evaluated after 13 days
# Procedure: as §2
# ZEAMX = Zea mays [12] = experiment: as above
# Procedure: as §2
# [13] = comparison of enantiomers, 62.5 g/Ha
# [14] = comparison of enantiomers, 250 g/Ha
# [15] = 1000 g/Ha, evaluated after 13 days
Compound,"ABUTH damage score (0-5) [1, 13]","ABUTH damage score (0-5) [1, 14]","AMARE damage score (0-5) [2, 13]","AMARE damage score (0-5) [2, 14]","ECHCG damage score (0-5) [3, 13]","ECHCG damage score (0-5) [3, 14]",LOLPE damage score (0-5) (LOLPE [4]; [13]),LOLPE damage score (0-5) (LOLPE [4]; [14]),SEFTA damage score (0-5) (SETFA = Setaria faberi [5]; 250 g/Ha),ZEAMX damage score (0-5) (ZEAMX = Zea mays [6]; [13]),ZEAMX damage score (0-5) (ZEAMX = Zea mays [6]; [14]),"ABUTH damage score (0-5) [7, 13]","ABUTH damage score (0-5) [7, 14]","AMARE damage score (0-5) [8, 13]","AMARE damage score (0-5) [8, 14]","ECHCG damage score (0-5) [9, 13]","ECHCG damage score (0-5) [9, 14]",LOLPE damage score (0-5) (LOLPE [10]; [13]),LOLPE damage score (0-5) (LOLPE [10]; [14]),SEFTA damage score (0-5) (SETFA = Setaria faberi [11]; 62.5 g/Ha),also measured
"COC[C@H]1C(O)N(c2cc(C(C)(C)C)on2)C(=O)N1C (stereo partly drawn) [A4 S-enantiomer, reference compound]",0,0,1,3,0,0,0,0,0,0,0,0,0,0,2,0,1,0,0,0,SEFTA damage score (0-5) (SETFA = Setaria faberi [5]; 62.5 g/Ha): 0; SEFTA damage score (0-5) (SETFA = Setaria faberi [11]; 250 g/Ha): 0; ZEAMX damage score (0-5) (ZEAMX = Zea mays [12]; [13]): 0; ZEAMX damage score (0-5) (ZEAMX = Zea mays [12]; [14]): 0
"CCO[C@H]1C(O)N(c2cc(C(C)(C)F)on2)C(=O)N1C (stereo partly drawn) [A5 S-enantiomer, reference compound]",0,0,5,5,0,0,0,0,0,0,0,0,1,1,5,0,0,0,0,0,SEFTA damage score (0-5) (SETFA = Setaria faberi [5]; 62.5 g/Ha): 0; SEFTA damage score (0-5) (SETFA = Setaria faberi [11]; 250 g/Ha): 1; ZEAMX damage score (0-5) (ZEAMX = Zea mays [12]; [13]): 0; ZEAMX damage score (0-5) (ZEAMX = Zea mays [12]; [14]): 0
CO[C@@H]1C(O)N(c2cc(C(C)(C)C)on2)C(=O)N1C (stereo partly shown) [Example A1],4,2,5,5,5,5,1,5,5,4,5,2,5,5,5,5,5,5,5,5,"ABUTH damage score (0-5) [1, 15]: 5; AMARE damage score (0-5) [2, 15]: 5; ECHCG damage score (0-5) [3, 15]: 5; LOLPE damage score (0-5) (LOLPE [4]; [15]): 5; SETFA damage score (0-5) (SETFA = Setaria faberi [5]): 5; SEFTA damage score (0-5) (SETFA = Setaria faberi [5]; 62.5 g/Ha): 4; ZEAMX damage score (0-5) (ZEAMX = Zea mays [6]; [15]): 3; ABUTH damage score (0-5) [7, 15]: 5; AMARE damage score (0-5) [8, 15]: 5; ECHCG damage score (0-5) [9, 15]: 5; LOLPE damage score (0-5) (LOLPE [10]; [15]): 5; SETFA damage score (0-5) (SETFA = Setaria faberi [11]): 5; SEFTA damage score (0-5) (SETFA = Setaria faberi [11]; 250 g/Ha): 5; ZEAMX damage score (0-5) (ZEAMX = Zea mays [12]; [15]): 5; ZEAMX damage score (0-5) (ZEAMX = Zea mays [12]; [13]): 5; ZEAMX damage score (0-5) (ZEAMX = Zea mays [12]; [14]): 5"
"COC[C@@H]1C(O)N(c2cc(C(C)(C)C)on2)C(=O)N1C (stereo partly drawn) [Example A4, (4R)-1-(5-tert-butylisoxazol-3-yl)-5-hydroxy-4-(methoxymethyl)-3-methyl-imidazolidin-2-one]",1,3,5,5,1,5,0,5,5,0,4,1,5,5,5,0,5,1,5,1,"ABUTH damage score (0-5) [1, 15]: 5; AMARE damage score (0-5) [2, 15]: 5; ECHCG damage score (0-5) [3, 15]: 5; LOLPE damage score (0-5) (LOLPE [4]; [15]): 5; SETFA damage score (0-5) (SETFA = Setaria faberi [5]): 4; ZEAMX damage score (0-5) (ZEAMX = Zea mays [6]; [15]): 3; ABUTH damage score (0-5) [7, 15]: 5; AMARE damage score (0-5) [8, 15]: 5; ECHCG damage score (0-5) [9, 15]: 5; LOLPE damage score (0-5) (LOLPE [10]; [15]): 5; SETFA damage score (0-5) (SETFA = Setaria faberi [11]): 5; SEFTA damage score (0-5) (SETFA = Setaria faberi [11]; 250 g/Ha): 5; ZEAMX damage score (0-5) (ZEAMX = Zea mays [12]; [15]): 5; ZEAMX damage score (0-5) (ZEAMX = Zea mays [12]; [14]): 5"

# Reference: US20170121319A1, “Herbicidal Compounds” (Syngenta Participations AG, priority 2014, published 2017)
